Experimental findings from patent US20120196899A1, “METHODS AND PRODUCTS FOR TREATING INFLAMMATION” (Rock Creek Pharmaceuticals, Inc., priority 2010, published 2012) are described below.

Data set [1] is described as follows: Single i.v. dose toxicity with 14-day observation: clinical signs and mortality. The data set is classed as in vivo, Sprague-Dawley rats. The following applies: nicotine 0.75 mg/kg single i.v. On the procedure: Body weight and food consumption was measured daily for 14 days. On day 15, urine was collected on all surviving animals. The animals were euthanized and bled via cardiac puncture, and blood was collected for analysis. Tissues were collected, weighed, evaluated for gross abnormalities, and stored in 10% neutral-buffered formalin.
Four aliquots of each dose formulation were collected and stored at −80° C.
The animals were weighed prior to dosing and received a single i.v. dose via the lateral tail vein of either test compound or vehicle at a volume of 5 mL/kg.

A short description of data set [2]: Physical signs after oral multi-dose administration. The data set is classed as in vivo, Sprague-Dawley rats. To be noted: 0.6 or 6.0 mg/kg BW p.o. in three divided doses. An excerpt: The physical signs of each animal were monitored following administration of the test compound.
Data set [3] can be described thus: Case: treatment of patient with autism and seizure disorder. The data set is classed as in vivo, human patient. The following applies: 1.0 mg three times per day. The source says: A patient, who was diagnosed with autism and a seizure disorder, had brain surgery and began rehabilitation the following month.
Another data set concerns BACE-1 mRNA. The data set is described as follows: BACE-1 mRNA levels in SHSY cells by RTPCR. The data set is classed as cell-based, human. To be noted: 30 minutes, TNF-α induced. The source says:
TNF-α was used to increase BACE expression.

Data set [4] relates to BACE-1 protein expression. In words: BACE-1 protein expression in SHSY cells (Western blot). The following applies: 24 hours, corrected for actin. The data set is classed as cell-based, human.
The subject of the next data set is phosphorylated p65. The data set is described as follows: p65 phosphorylation in brain after intracranial TNFα. The data set is classed as in vivo, Wild-type mice (B6/SJL). To be noted: 2 mg/kg i.p., mouse brain, normalized to actin. On the procedure:
After 5 minutes, mice were intracranially injected with 0.5 mg of TNFα. Mice were euthanized ten minutes after the intracranial injection. The portion of the brain surrounding the intracranial site of injection was collected, and proteins were extracted. Phosphorylation of p65 was measured with an antibody towards phosphorylated p65.

The subject of data set [5] is LPS-induced IL-1β release. In words: LPS-induced IL-1β release in whole human blood. The data set is classed as cell-based. On the procedure:
Whole human blood was treated with LPS to stimulate inflammatory responses. […] The inflammatory molecule IL-1β was measured after 16 hours.

The subject of data set [6] is Experimental Autoimmune Thyroiditis. The data set is described as follows: Experimental Autoimmune Thyroiditis (Example 16A): thyroid histopathology. The data set is classed as in vivo, mice. To be noted: 0.05 mg/ml in drinking water, day 21, p=0.05. Here is the method: Thyroiditis was induced by injection of thyroglobulin emulsified in complete Freund's adjuvant (CFA). On days 0 and 7, female mice received subcutaneous injection of 100 μg thyroglobulin (2 injections of 50 μg each). Control mice drank water. […] Mice were sacrificed on day 21.
Thyroid histopathology. Thyroid glands were removed. One lobe was fixed in formalin for histopathology. One lobe was frozen for immunohistochemistry. The extent of lymphocytic infiltration and destruction of the thyroid gland was assessed digitally. Initially, the entire thyroid lobe was examined. […] The final score was expressed as the percent of the thyroid area infiltrated by lymphocytes and damaged. The results are shown graphically in FIG. 42. […] Photomicrographs of hematoxylin- and eosin-stained thyroids from control and anatabine-treated mice are shown in FIG. 43A (control) and FIG. 43B (anatabine-treated).

“Also recorded” adds a separate entry of the source.

As to `CN1CCCC1c1cccnc1.O=C(O)C(O)C(O)C(=O)O` (single isomer, unassigned; (-)) [Nicotine, (−) Nicotine hydrogen tartrate, reference compound], the mortality entry in data set [1] (5 males and 5 females, tartrate) was “One male and two females died post dose; also recorded: one male animal and 2 females died following test compound administration”. Moreover, the “clinical signs after dosing” value in data set [1] (male and female rats) is reported as “experienced tremors upon compound administration but returned to normal within 15-20 minutes post dose”.

Regarding `C1=CCC(c2cccnc2)NC1` (racemic) [Anatabine, 1,2,3,6-tetrahydro-[2,3′]bipyridinyl], the adverse signs result in data set [2] is on record as “no adverse signs were observed”. The cognitive benefits result in data set [3] (from approximately one week) is “improved communication and language skills and the ability to focus”. The frequency of seizures entry in data set [3] (over 3½ weeks, one patient) was “decreased from one per day to approximately one per week”. Also, the “BACE-1 mRNA expression” value with BACE-1 mRNA is “reduced this signal in a concentration-dependent manner”. The BACE-1 protein expression entry in data set [4] is reported as “reduced BACE expression”. Besides, in the data set with phosphorylated p65, the p65 phosphorylation entry was “reduced p65 phosphorylation in mouse brain”. For the same compound, the “IL-1β production over time” value in data set [5] (LPS-stimulated human blood, repeated measurement (Example 15)) was “rapid and continuous effect on the suppression”. Further, in data set [5] (LPS-treated whole human blood, 16 hours (Example 13)), the “accumulation of IL-1β” value is on record as “reduced accumulation of IL-1β”. In addition, the “accumulation of IL-1β over dose response” value in data set [5] (LPS-treated whole human blood, 16 hours (Example 14)) was “reduced accumulation of IL-1β”. Also, the “thyroid pathology (percent of thyroid area infiltrated and damaged)” value in data set [6] is “developed less severe thyroiditis than control mice”.
